Assay results as given in patent publication US6552048B2, “Sulfonylcarboxamide derivatives, process for their preparation and their use as pharmaceuticals” (Aventis Pharma Deutschland GmbH, priority 1999, dated 2003).

Columns and labels:
[1] = test system: human LDL receptor gene promoter region coupled to firefly Luciferase reporter gene in Hep-G2 cell line; assay: In vitro determination of LDL receptor induction using the Luciferase assay; assay type: cell-based; conditions: for LDL-receptor induction in %, compared with control: comparative test
Experimental: 1) In vitro Determination of LDL Receptor Induction Using the Luciferase Assay
LDL-receptor induction is determined using the Luciferase assay as follows: for this purpose, a regulatory DNA fragment (4 kb) of the human LDL receptor gene which contains the complete promoter region is coupled to the firefly Luciferase reporter gene and stably transfixed into a Hep-G2 cell line. Cells from this line were seeded out on collagen-coated 96-well plates in MEM (minimum essential medium). After 24 hours in culture, the test substances, dissolved in DMSO, were added in final concentrations of 10 nM to 10 μM (final DMSO concentration=2%). The substances were incubated for 12-18 hours overnight (4 wells/conc. in each case), then D-luciferin was added as substrate for the Luciferase, and the luminescence was measured. The measured luminescence as a percentage of the control (control=100%) incubated only with DMSO indicates the extent of the relative LDL-receptor induction (Table 2).
Further details of the method are described in: Current Protocols in Molecular Biology, F. M. Ausubel, R. Brent, R. E. Kingston, D. D. Moore, J. G. Seidman, J. A. Smith and Kevin Struhl editors, J. Wiley and Sons Inc., U.S.A.
A comparative test was carried out by the Luciferase assay described above using 2,4-dichloro-5-(3,5-dimethylpiperidinosulfamoyl)benzoic acid and the compound from Example 42. [drawing 8]

hyperlipidemic hamsters = assay: In vivo determination of reduction in LDL cholesterol in hyperlipemic hamsters; parameters: species or system male Syrian hamsters; conditions: vs placebo-treated control
Source text: 2) In vivo Determination of Reduction in LDL Cholesterol in Hamsters.
Cholesterol-lowering effect of LDL-receptor inducers in hyperlipemic hamsters
In this animal experiment, the effect of LDL-receptor inducers after bolus administration to hamsters on a lipid-rich diet was investigated.
The test animals used were male Syrian hamsters (Charles River) with an average body weight of 100-120 g at the start of adaptation. The animals were divided into groups (n=6) on the basis of body weight. Severe hyperlipidemia was induced by feeding with a diet supplemented with 15% butter and 3% cholesterol. The treatment started after preliminary feeding for 2 weeks. The test substances were administered orally by gavage once a day over a period of 10 days. The plasma lipid level was analyzed after 10 days.

[2] = test compound 0.05 μM, control (DMSO only)=100%, Hep-G2 reporter line
[3] = test compound 0.15 μM, control (DMSO only)=100%, Hep-G2 reporter line
[4] = test compound 0.15 μM, control (DMSO only)=100%, Hep-G2 reporter line, 0.15 µM
[5] = test compound 1.5 μM, control (DMSO only)=100%, Hep-G2 reporter line
[6] = 20 mg/kg p.o. once a day for 10 days
[7] = 10 mg/kg p.o. once a day for 10 days
[8] = 40 mg/kg p.o. once a day for 10 days

CCN(CC)C(=O)c1cc(S(=O)(=O)Cc2ccc(C(F)(F)F)cc2)c(N2CCC(c3ccccc3)CC2)cc1N(CC)CCN(C)C [Example 113]
LDL-receptor induction (% of control) [1, 2]: 217% (0.05 μM)

CN1CCN(c2cc(N3CCC(Cc4ccccc4)CC3)c(S(=O)(=O)N(C)c3ccccc3)cc2C(=O)N(C)c2ccccc2)CC1 [Example 9]
LDL-receptor induction (% of control) [1, 3]: 170% (0.15 μM)

CCN(CC)C(=O)c1cc(S(=O)(=O)Cc2cccc(OC(F)(F)F)c2)c(N2CCC(c3ccccc3)CC2)cc1NCCN1CCCC1 [Example 91]
LDL-receptor induction (% of control) [1, 2]: 231% (0.05 μM)

CCCCCNC(=O)c1cc(S(C)(=O)=O)c(N2CCC(c3ccccc3)CC2)cc1NCCN1CCCC1 [Example 143, 2-[NH-Ethyl-N-pyrrolidinyl]-NH-pentyl-5-methylsulfonyl-4-(4-phenylpiperidin-1-yl)benzamide]
LDL-receptor induction (% of control) [1, 4]: 308% (0.15 μM)

COCCCNC(=O)c1cc(S(C)(=O)=O)c(N2CCC(c3ccccc3)CC2)cc1N1CCN(C)CC1 [Example 34]
LDL-receptor induction (% of control) [1, 3]: 210% | LDL-receptor induction (% of control) ([1]; test compound 4 μM, control (DMSO only)=100%, Hep-G2 reporter line): 291%

CN1CCN(c2cc(NC3CCN(Cc4ccccc4)CC3)c(S(=O)(=O)N(C)c3ccccc3)cc2C(=O)N(C)c2ccccc2)CC1 [Example 4]
LDL-receptor induction (% of control) [1, 3]: 190% (0.15 μM)

CC1CC(C)CN(S(=O)(=O)c2cc(C(=O)O)c(Cl)cc2Cl)C1 (stereo not drawn) [reference compound]
LDL-receptor induction in %, compared with control ([1]; 0.05 μM): 94% | LDL-receptor induction in %, compared with control ([1]; 0.15 μM): 90% | LDL-receptor induction in %, compared with control ([1]; 1.5 μM): 90% | LDL-receptor induction in %, compared with control ([1]; 4 μM): 100%

CCCCCNC(=O)c1cc(S(C)(=O)=O)c(N2CCC(c3ccccc3)CC2)cc1NCCN1CCCC1 [Example 54]
LDL-receptor induction (% of control) [1, 4]: 223% (0.15 μM)

CCN(CCN(C)C)c1cc(N2CCC(c3ccccc3)CC2)c(S(=O)(=O)Cc2ccccc2)cc1C(=O)NCCCCCO [Example 107]
LDL-receptor induction (% of control) [1, 2]: 288% (0.05 μM)

CCN(CC)C(=O)c1cc(S(=O)(=O)Cc2cccc(OC)c2)c(N2CCC(c3ccccc3)CC2)cc1NCCN1CCCC1 [Example 84]
LDL-receptor induction (% of control) [1, 2]: 240% (0.05 μM)

CN(C(=O)c1cc(S(=O)(=O)N(C)c2ccccc2)c(N2CCC(Cc3ccccc3)CC2)cc1NCCN1CCCC1)c1ccccc1 [Example 22]
LDL-receptor induction (% of control) [1, 3]: 224% (0.15 μM)

CCCCCNC(=O)c1cc(S(C)(=O)=O)c(N2CCC(c3ccccc3)CC2)cc1NCCN1CCCC1.CS(=O)(=O)O [Example 141, 2-[NH-Ethyl-N-pyyrolidinyl]-NH-pentyl-5-methylsulfonyl-4-(4-phenylpiperidin-1-yl)benzamide]
LDL-receptor induction (% of control) [1, 3]: 280% (0.15 μM)

COCCCNC(=O)c1cc(S(C)(=O)=O)c(N2CCC(Cc3ccccc3)CC2)cc1N(C)CCN(C)C [Example 62]
LDL-receptor induction (% of control) [1, 2]: 205% (0.05 μM)

CCN(CC)C(=O)c1cc(S(=O)(=O)Cc2ccc(C#N)cc2)c(N2CCC(c3ccccc3)CC2)cc1N(CC)CCN(C)C [Example 116]
LDL-receptor induction (% of control) [1, 2]: 235% (0.05 μM)

CCN(CC)C(=O)c1cc(S(=O)(=O)Cc2ccc(C)cc2)c(N2CCC(c3ccccc3)CC2)cc1NCCN1CCCC1 [Example 83]
LDL-receptor induction (% of control) [1, 3]: 212% (0.15 μM)

COCCCNC(=O)c1cc(S(C)(=O)=O)c(N2CCC(Cc3ccccc3)CC2)cc1NCCN1CCCC1 [Example 57]
LDL-receptor induction (% of control) [1, 3]: 222% (0.15 μM)

CN(C)CCN(C)c1cc(N2CCC(Cc3ccccc3)CC2)c(S(C)(=O)=O)cc1C(=O)N1CCCCC1 [Example 67]
LDL-receptor induction (% of control) [1, 3]: 203% (0.15 μM)

CN1CCN(c2cc(N3CCC(c4ccccc4)CC3)c(S(=O)(=O)N3CCCCC3)cc2C(=O)N2CCCCC2)CC1 [Example 37]
LDL-receptor induction (% of control) [1, 3]: 204% | LDL-receptor induction (% of control) [1, 5]: 227% | Relative change in plasma LDL cholesterol (hyperlipidemic hamsters; [6]): −31% | Relative change in plasma total cholesterol (hyperlipidemic hamsters; [6]): −21% | Relative change in plasma triglycerides (hyperlipidemic hamsters; [6]): −46%

CN1CCN(c2cc(NC3CCN(Cc4ccccc4)CC3)c(S(C)(=O)=O)cc2C(=O)N(C)c2ccccc2)CC1 [Example 14]
LDL-receptor induction (% of control) [1, 5]: 176% (1.5 μM)

CCCCCNC(=O)c1cc(S(C)(=O)=O)c(N2CCC(Cc3ccccc3)CC2)cc1NCCN1CCCC1 [Example 53]
LDL-receptor induction (% of control) [1, 2]: 197% | LDL-receptor induction (% of control) [1, 3]: 221% | Relative change in plasma LDL cholesterol (hyperlipidemic hamsters; [7]): −52% | Relative change in plasma total cholesterol (hyperlipidemic hamsters; [7]): −7% | Relative change in plasma triglycerides (hyperlipidemic hamsters; [7]): +21% | Relative change in plasma LDL cholesterol (hyperlipidemic hamsters; [6]): −57% | Relative change in plasma total cholesterol (hyperlipidemic hamsters; [6]): −16% | Relative change in plasma triglycerides (hyperlipidemic hamsters; [6]): −11% | Relative change in plasma LDL cholesterol (hyperlipidemic hamsters; [8]): −58% | Relative change in plasma total cholesterol (hyperlipidemic hamsters; [8]): −17% | Relative change in plasma triglycerides (hyperlipidemic hamsters; [8]): −23%

CN1CCN(c2cc(NCCc3ccccc3)c(S(=O)(=O)N(C)c3ccccc3)cc2C(=O)N(C)c2ccccc2)CC1 [Example 3]
LDL-receptor induction (% of control) [1, 5]: 276% (1.5 μM)

CCN(CC)C(=O)c1cc(S(=O)(=O)Cc2ccc(F)cc2F)c(N2CCC(c3ccccc3)CC2)cc1N(CC)CCN(C)C [Example 82]
LDL-receptor induction (% of control) [1, 3]: 227% (0.15 μM)

CCCCCNC(=O)c1cc(S(=O)(=O)Cc2ccccc2)c(N2CCC(c3ccc(C)cc3)CC2)cc1N(CC)CCN(C)C [Example 78]
LDL-receptor induction (% of control) [1, 3]: 200% (0.15 μM)

CN1CCN(c2cc(NCCCc3ccccc3)c(S(=O)(=O)N(C)c3ccccc3)cc2C(=O)N(C)c2ccccc2)CC1 [Example 2]
LDL-receptor induction (% of control) [1, 5]: 225% (1.5 μM)

CCCCCNC(=O)c1cc(S(=O)(=O)Cc2ccccc2)c(N2CCC(c3ccc(F)cc3)CC2)cc1N(CC)CCN(C)C [Example 76]
LDL-receptor induction (% of control) [1, 3]: 244% (0.15 μM)

CN(C(=O)c1cc(S(=O)(=O)N(C)c2ccccc2)c(N2CCC(c3ccccc3)CC2)cc1NCCN1CCCC1)c1ccccc1 [Example 25]
LDL-receptor induction (% of control) [1, 2]: 152% | LDL-receptor induction (% of control) [1, 5]: 346%

CCCCCNC(=O)c1cc(S(C)(=O)=O)c(N2CCC(c3ccccc3)CC2)cc1NCCN1CCCC1.Cc1ccc(S(=O)(=O)O)cc1 [Example 142, 2-[NH-Ethyl-N-pyrrolidinyl]-NH-pentyl-5-methylsulfonyl-4-(4-phenylpiperidin-1-yl)benzamide]
LDL-receptor induction (% of control) [1, 3]: 281% (0.15 μM)

CCN(CC)C(=O)c1cc(S(=O)(=O)Cc2cc(OC)cc(OC)c2)c(N2CCC(c3ccccc3)CC2)cc1N(CC)CCN(C)C [Example 96]
LDL-receptor induction (% of control) [1, 2]: 196% (0.05 μM)

CCN(CC)C(=O)c1cc(S(=O)(=O)Cc2ccccc2)c(N2CCC(c3ccccc3)CC2)cc1N(CC)CCN(C)C [Example 42, 2-[(2-Dimethylaminoethyl)ethylamino]-N,N-diethyl-5-phenylmethane-sulfonyl-4-(4-phenylpiperidin-1-yl)benzamide]
activity at 0.05 µM ([1]; Homo sapiens, HepG2, test compound 0.05 μM, control (DMSO only)=100%, Hep-G2 reporter line): 149% | LDL-receptor induction in %, compared with control ([1]; 0.05 μM): 204% | LDL-receptor induction in %, compared with control ([1]; 0.15 μM): 219% | LDL-receptor induction in %, compared with control ([1]; 1.5 μM): 250% | LDL-receptor induction in %, compared with control ([1]; 4 μM): 278%

CN1CCN(c2cc(N3CCC(Cc4ccccc4)CC3)c(S(C)(=O)=O)cc2C(=O)N2CCCCC2)CC1 [Example 30]
LDL-receptor induction (% of control) [1, 3]: 199% | LDL-receptor induction (% of control) [1, 5]: 255%
